Publication PMC12951568, “Identifying Structural Factors Governing the Photodynamic Activity of Phthalocyanines” (Journal of Medicinal Chemistry, 2026)
“And” between values parts separate entries of the source, which are not always exact repeats. Equal values may be shown once.

What was measured:
[1] = target: bovine serum albumin (BSA) (Bos taurus, UniProt P02769); experiment: Interaction with bovine serum albumin (absorption and emission spectra in PBS); assay type: binding; settings: 1 μM Pc in PBS, BSA 17.5, 35 and 100 μM
[2] = Absorption and fluorescence emission spectra in DMF; assay type: physicochemical; settings: in DMF
Procedure: An absorption spectrum of 2.475 mL of solvent (water, DMF, or PBS) was taken (i.e., absorption spectrum of baseline); then, 25 μL of stock solution was added to reach the final concentration of 1 μM in the cuvette, and the absorption and emission spectra were taken. Baseline of the solvent was subtracted from the obtained absorption spectrum to get the final absorption spectrum of the sample.

[3] = test system: SK-MEL-28 (human skin melanoma); experiment: Photodynamic activity (phototoxicity, neutral red uptake) on SK-MEL-28; assay type: cell-based; settings: 12 h incubation, Xe-lamp 15 min, λ > 570 nm, 11.2 J/cm^2; mean ± SD; t.w. = this work
Procedure: (§1) Detailed in vitro studies involving subcellular localization and determination of the EC50 in three different cell lines (human cervical carcinoma–HeLa, human breast adenocarcinoma–MCF-7, and human skin melanoma–SK-MEL-28) were performed. A broadband light source (ozone-free 450 W Xe-lamp, Newport) equipped with the long-pass filter Schott OG570 was used (12.4 mW/cm^2, 15 min, 11.2 J/cm^2).
(§2) For the cytotoxicity experiments (phototoxicity), cells were seeded at 100 μL per well into 96-well plates (TPP, Switzerland) at a density of 7.5 × 10^3 (HeLa) or 1.0 × 10^4 (MCF-7 and SK-MEL-28) cells per well. Cells were left to grow for 24 h (until they reached confluency) in a controlled environment of a CO2 incubator (37 °C, 5% CO2 atmosphere, constant high humidity). Subsequently, studied compounds were added in a wide concentration range and incubated with the cells for 12 h. Cells were washed; fresh cell culture medium was added, and the cells were irradiated using a 450 W Xe lamp (Newport, USA). The lamp was equipped with a long pass filter (Newport OG570) and an 8 cm water filter (λ > 570 nm, 12.4 mW/cm^2, 15 min, 11.2 J/cm^2). Cellular viability was assessed after an additional 24 h by the neutral red (NR; Sigma, Merck, USA) uptake assay. At least three independent experiments, each in triplicate, were performed. The soluble NR was measured at λ = 540 nm using a Tecan Infinite 200 M plate reader (Tecan, Austria). The viability of each experimental group was expressed as the percentage of the untreated cells (100% viability) after subtraction of the signal from cells treated with a lethal dose of hydrogen peroxide (0% viability). […] EC50 values were calculated, and graphs were created by using GraphPad Prism 10.3.1 (Graph Pad software, USA).

[4] = test system: HeLa (human cervical carcinoma); experiment: Photodynamic activity (phototoxicity, neutral red uptake) on HeLa; assay type: cell-based; settings: 12 h incubation, Xe-lamp 15 min, λ > 570 nm, 11.2 J/cm^2; mean ± SD; t.w. = this work
Procedure: as §1, §2

[5] = Log P, partition between n-octanol and PBS; assay type: physicochemical; settings: partition coefficient between 1-octanol and PBS
Procedure: 400 μL portion of n-octanol and 400 μL of PBS buffer were mixed in a plastic Eppendorf vial. Then, 20 μL of the 100 μM stock solution of the sample (see above) was added to this mixture, vortexed for 5 min at rt, and then centrifuged for 10 min (10 000 rpm, rt). 50 μL of each of these layers was taken into 2.5 mL of DMF in a quartz cuvette, and their emission spectra (excitation wavelengths in Table ) were recorded. The log P value was then computed using the area under the curve of the emission spectra of n-octanol (F oct) and PBS buffer (F PBS) layers as follows: logP=log(Foct/FPBS) Triplicate measurements were performed, and the data reported are the mean of the obtained results.

[6] = Quantum yield of singlet oxygen production, comparative method with DPBF scavenger; assay type: physicochemical; settings: in DMF, ZnPc as reference
Procedure: Eight μL of the 100 μM stock solution of the dye in DMF (or DMF + water or water; see above) was added. A xenon lamp (100 W, ozone free XE DC short arc lamp, New port) was used to irradiate the sample while stirring. The incident light was filtered through a water filter (6 cm) and cut off filter OG530 eliminating heat and light under 523 nm, respectively. […] The decrease of DPBF in solution with irradiation time was monitored at 415 nm. The values of ΦΔ of the dyes were calculated by the following equation: φΔS=φΔ[…] is the slope of the plot of the dependence of ln([…] 0 and A t being the absorbances of the DPBF at 415 nm before irradiation and after irradiation time t, respectively. I aT is the total amount of light absorbed by the dye sample. Superscripts R and S indicate the reference and sample, respectively. I aT is calculated as a sum of intensities of the absorbed light I a at wavelengths from 523 to 850 nm (step 0.5 nm). Light under 523 nm is completely filtered by an OG530 filter, and light above 850 nm is not absorbed by the studied dye sample. I a at a given wavelength is calculated using Beer-Lambert'[…]) where I 0 is transmittance of the filter at the given wavelength and A is the absorbance of the dye at this wavelength. All experiments were performed three times, and the data presented is the mean value of the three obtained results with estimated error ± 10%.

[7] = test system: MCF-7 (human breast adenocarcinoma); experiment: Photodynamic activity (phototoxicity, neutral red uptake) on MCF-7; assay type: cell-based; settings: 12 h incubation, Xe-lamp 15 min, λ > 570 nm, 11.2 J/cm^2; mean ± SD; t.w. = this work
Procedure: as §1, §2

[8] = Fluorescence quantum yield, comparative method; assay type: physicochemical; settings: in DMF; ZnPc as reference
Procedure: The fluorescence quantum yields (ΦF) were determined by a comparative method with ZnPc as the reference (ΦF = 0.32 in THF). The ΦF values were calculated using the following formula: ϕFS=ϕFR(F^S/F^R)(1−10^−A^R/1−10^−A^S)(η^S/η^R)^2 where F is the integrated area under the emission spectrum and A is the absorbance at the excitation wavelength. Superscripts R and S indicate the reference and sample, respectively. η stands for the refractive index of the solvent. Absorption in the Q-band was kept below 0.05 to eliminate the inner filter effect. Excitation wavelengths were the same as those used for emission spectra (see above). The emission wavelengths were set to their emission maxima to avoid exceeding the detector limit with stimated error ± 15%.

[9] = Fluorescence lifetime in DMF; assay type: physicochemical
Excerpt: 1 Photophysical Data of Investigated Derivatives in DMF ^a | column: τF1/ns; τF2/ns

bovine serum albumin (BSA), sequence (P02769 25-607): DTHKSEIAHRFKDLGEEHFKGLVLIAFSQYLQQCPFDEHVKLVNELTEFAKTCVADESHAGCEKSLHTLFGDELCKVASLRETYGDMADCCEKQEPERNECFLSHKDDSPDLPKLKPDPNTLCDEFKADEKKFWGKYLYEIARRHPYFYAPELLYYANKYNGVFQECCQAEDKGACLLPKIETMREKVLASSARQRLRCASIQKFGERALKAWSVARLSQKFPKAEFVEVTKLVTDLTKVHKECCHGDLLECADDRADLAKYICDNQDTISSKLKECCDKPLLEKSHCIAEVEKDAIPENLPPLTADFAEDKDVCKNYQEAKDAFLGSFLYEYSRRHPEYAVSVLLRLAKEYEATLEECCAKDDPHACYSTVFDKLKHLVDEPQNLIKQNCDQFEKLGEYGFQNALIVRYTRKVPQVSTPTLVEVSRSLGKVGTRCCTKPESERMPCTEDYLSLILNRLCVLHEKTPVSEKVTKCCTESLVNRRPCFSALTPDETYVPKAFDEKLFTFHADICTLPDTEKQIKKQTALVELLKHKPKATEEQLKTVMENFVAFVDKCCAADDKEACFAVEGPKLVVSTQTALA

| Structure (SMILES) | Interaction with BSA: disaggregation/monomerization and changes in absorption and fluorescence emission spectra [1] | ε, extinction coefficient [2] | λA, absorption maximum in the Q-band [2] [nm] | λF, fluorescence emission maximum [2] [nm] | EC50 [3] [nM] | EC50 [4] [nM] | Log P [5] | ΦΔ, quantum yield of singlet oxygen production [6] | EC50 [7] [nM] | ΦF, fluorescence quantum yield [8] | τF1, fluorescence lifetime (relative amplitude in brackets) [9] | τF2, fluorescence lifetime (relative amplitude in brackets) [9] |
| --- | --- | --- | --- | --- | --- | --- | --- | --- | --- | --- | --- | --- |
| O=S(=O)([O-])c1cc(S(=O)(=O)[O-])c2cc(Oc3cccc4c3C3=NC4=Nc4c5c(Oc6ccc7cc(S(=O)(=O)[O-])cc(S(=O)(=O)[O-])c7c6)cccc5c5[n]4[Zn][n]4c(c6cccc(Oc7ccc8cc(S(=O)(=O)[O-])cc(S(=O)(=O)[O-])c8c7)c6c4=NC4=NC(=N5)c5c(Oc6ccc7cc(S(=O)(=O)[O-])cc(S(=O)(=O)[O-])c7c6)cccc54)=N3)ccc2c1.[Na+].[Na+].[Na+].[Na+].[Na+].[Na+].[Na+].[Na+] [A7Zn] | complete | 109 950 M^–1cm^–1 | 696 | 707 | 2120 ± 560 | 1300 ± 400 | –2.92 | 0.55 | 5100 ± 350 | 0.23 |  |  |
| O=S(=O)([O-])c1ccc(Oc2cccc3c2C2=Cc4c5cccc(Oc6ccc(S(=O)(=O)[O-])c7cccnc67)c5c5[n]4[Zn][n]4c(c6cccc(Oc7ccc(S(=O)(=O)[O-])c8cccnc78)c6c4=CC3=N2)=CC2=NC(=C5)c3cccc(Oc4ccc(S(=O)(=O)[O-])c5cccnc45)c32)c2ncccc12.[Na+].[Na+].[Na+].[Na+] [A8Zn] | complete | 197 610 M^–1cm^–1 | 696 | 708 | 1200 ± 280 |  | –3.64 | 0.69 | 2470 ± 810 | 0.26 |  |  |
| C[n+]1cccc(Oc2ccc3c(c2)C2=NC3=Nc3c4cc(Oc5ccc[n+](C)c5)ccc4c4[n]3[Zn][n]3c(c5ccc(Oc6ccc[n+](C)c6)cc5c3=NC3=NC(=N4)c4cc(Oc5ccc[n+](C)c5)ccc43)=N2)c1.[I-].[I-].[I-].[I-] [C5Zn-I] |  | 130 860 M^–1cm^–1 | 674 | 682 | 110 ± 10 | 62 ± 13 | –2.19 | 0.49 | 60 ± 10 | 0.25 | 2.38 (97%) ns | 6.53 (3%) ns |
| C[n+]1cccc(Oc2ccc3c(c2)C2=NC3=Nc3c4cc(Oc5ccc[n+](C)c5)ccc4c4[n]3[Zn][n]3c(c5ccc(Oc6ccc[n+](C)c6)cc5c3=NC3=NC(=N4)c4cc(Oc5ccc[n+](C)c5)ccc43)=N2)c1.F[P-](F)(F)(F)(F)F.F[P-](F)(F)(F)(F)F.F[P-](F)(F)(F)(F)F.F[P-](F)(F)(F)(F)F [C5Zn-PF 6] |  | 86 800 M^–1cm^–1 | 674 | 682 | 190 ± 40 | 52 ± 26 | –2.37 | 0.45 | 100 ± 20 | 0.28 | 2.32 (97%) ns | 6.31 (3%) ns |
| C[n+]1cccc(Oc2ccc3c(c2)C2=NC3=Nc3c4cc(Oc5ccc[n+](C)c5)ccc4c4[n]3[Zn][n]3c(c5ccc(Oc6ccc[n+](C)c6)cc5c3=NC3=NC(=N4)c4cc(Oc5ccc[n+](C)c5)ccc43)=N2)c1.O=S(=O)(O)O.O=S(=O)(O)O.O=S(=O)([O-])[O-].O=S(=O)([O-])[O-] [C5Zn-SO 4] |  | 82 140 M^–1cm^–1 | 674 | 682 | 150 ± 50 | 53 ± 9 | –3.57 | 0.28 | 80 ± 30 | 0.077 and 0.08 | 2.47 (94%) ns | 4.93 (6%) ns |
| COCCOCCOCCOCCOc1ccc(OCCOCCOCCOCCOC)c2c1C1=NC2=Nc2c3ccccc3c3[n]2[Zn][n]2c(c4ccccc4c2=N1)=NC1=NC(=N3)c2ccccc21 [N1Zn] | monomerization was apparent even from the absorption spectra | 82 550 M^–1cm^–1 | 689 | 702 | 16 ± 3 | 17 ± 5 |  | 0.67 | 6 ± 1 | 0.24 | 2.41 ns |  |
| OCc1cc(CO)cc(OCCCCSC2=C(SCCCCOc3cc(CO)cc(CO)c3)C3=Nc4c5ccccc5c5[n]4[Mg][n]4c(c6ccccc6c4=NC4=NC(=N5)c5ccccc54)=NC2=N3)c1 [N2Mg] | fluorescence was slightly enhanced | 15 950 M^–1cm^–1 | 684 | 687 | 119 ± 14 | 107 ± 1 |  | 0.17 | 190 ± 40 | 0.16 | 1.29 (25%) ns | 3.39 (75%) ns |
